Laboratory results as given in patent US9051304B2, “Carboxamide compounds and their use as calpain inhibitors V” (AbbVie Deutschland GmbH & Co. KG, priority 2009, dated 2015).

What was measured:
[1] = target: T1, calpain-I isolated from human erythrocytes (Homo sapiens, UniProt P07384); experiment: Calpain I enzyme inhibition, kinetic fluorescence assay; format: biochemical; conditions: apparent Ki from IC50 by Cheng-Prussoff; human erythrocyte calpain-I
T1 construct: calpain-I—isolated from human erythrocytes; purchased Calbiochem 208713; host or cells: human erythrocytes (tissue isolate)
T1 sequence (P07384 1-714): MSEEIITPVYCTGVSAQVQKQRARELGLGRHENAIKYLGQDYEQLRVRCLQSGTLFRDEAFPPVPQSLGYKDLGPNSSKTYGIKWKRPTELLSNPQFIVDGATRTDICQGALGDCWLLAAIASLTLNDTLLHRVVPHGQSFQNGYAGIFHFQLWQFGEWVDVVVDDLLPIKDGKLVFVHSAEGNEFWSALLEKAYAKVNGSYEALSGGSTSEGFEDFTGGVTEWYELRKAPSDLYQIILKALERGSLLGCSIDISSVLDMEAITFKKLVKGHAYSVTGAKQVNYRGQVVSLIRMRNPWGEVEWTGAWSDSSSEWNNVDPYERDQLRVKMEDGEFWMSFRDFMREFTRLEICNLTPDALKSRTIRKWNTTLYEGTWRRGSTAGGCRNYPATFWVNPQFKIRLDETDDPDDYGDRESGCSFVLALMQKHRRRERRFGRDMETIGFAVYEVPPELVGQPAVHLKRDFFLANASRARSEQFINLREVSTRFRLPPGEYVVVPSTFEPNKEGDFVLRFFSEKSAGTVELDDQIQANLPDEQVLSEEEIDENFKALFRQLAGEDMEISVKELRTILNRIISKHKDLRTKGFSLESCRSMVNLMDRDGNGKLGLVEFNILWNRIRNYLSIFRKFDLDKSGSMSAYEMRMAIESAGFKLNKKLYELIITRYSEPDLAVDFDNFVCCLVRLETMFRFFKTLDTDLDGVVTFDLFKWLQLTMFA
T1 sequence (P04632 1-268 partner): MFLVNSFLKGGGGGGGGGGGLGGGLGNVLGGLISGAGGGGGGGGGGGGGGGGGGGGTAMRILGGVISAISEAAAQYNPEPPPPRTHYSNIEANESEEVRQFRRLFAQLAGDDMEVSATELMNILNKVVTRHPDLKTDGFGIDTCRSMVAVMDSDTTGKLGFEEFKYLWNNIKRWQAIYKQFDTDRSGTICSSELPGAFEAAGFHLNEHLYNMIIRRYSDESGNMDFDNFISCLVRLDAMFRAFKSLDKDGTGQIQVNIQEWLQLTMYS
Method: (§1) I Enzyme Inhibition in vitro:
(§2) Testing for blockade of the corresponding enzymic activities was carried out by means of kinetic fluorescence assays (excitation 390 nm, emission 460 nm).
(§3) Apparent Ki values were calculated from the experimentally determined IC50 values by the Cheng-Prussoff relation assuming a reversible competitive enzyme inhibition.
20 nM calpain-I—isolated from human erythrocytes (Calbiochem #208713), 100 μM Suc-Leu-Tyr-AMC (Bachem #I-1355) as substrate in buffer with 62 mM imidazole, 0.3 mM CaCl2, 0.10% CHAPS, 0.05% BSA, 1 mM DTT at pH 7.3 and room temperature.

[2] = target: T2, cathepsin B isolated from human liver (Homo sapiens, UniProt P07858); experiment: Cathepsin B enzyme inhibition, kinetic fluorescence assay; format: biochemical; conditions: selectivity ratio vs calpain
T2 construct: cathepsin B—isolated from human liver; purchased Calbiochem 219362; host or cells: human liver (tissue isolate)
Method: as §1, §2, §3
0.25 nM cathepsin B—isolated from human liver (Calbiochem #219362), 100 μM Z-Phe-Arg-AMC (Bachem #I-1160) as substrate 50 mM MES, 2 mM EDTA, 0.05% Brij 35, 2.5 mM L-cysteine, pH 6.0, room temperature.

[3] = target: T3, cathepsin K activated from recombinant human procathepsin K (Homo sapiens, UniProt P43235); experiment: Cathepsin K enzyme inhibition, kinetic fluorescence assay; format: biochemical; conditions: selectivity ratio vs calpain
T3 construct: purchased Calbiochem 342001; host or cells: E. coli
T3 sequence (P43235 115-329): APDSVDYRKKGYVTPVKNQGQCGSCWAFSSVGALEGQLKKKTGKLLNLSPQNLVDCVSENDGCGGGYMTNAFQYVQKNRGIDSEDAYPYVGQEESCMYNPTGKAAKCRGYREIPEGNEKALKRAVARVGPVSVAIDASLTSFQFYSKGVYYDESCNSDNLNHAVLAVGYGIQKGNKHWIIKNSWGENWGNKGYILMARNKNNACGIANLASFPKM
Method: as §1, §2, §3
3 nM cathepsin K—activated from recombinant human procathepsin K from E. coli (Calbiochem #342001), 10 μM Z-Gly-Pro-Arg-AMC (Biomol #P-142) as substrate in 50 mM MES, 2 mM EDTA, 0.05% Brij 35, 2.5 mM L-cysteine, pH 6.0, room temperature.

[4] = target: T4, cathepsin L isolated from human liver (Homo sapiens, UniProt P07711); experiment: Cathepsin L enzyme inhibition, kinetic fluorescence assay; format: biochemical; conditions: selectivity ratio vs calpain
T4 construct: cathepsin L—isolated from human liver; purchased Calbiochem 219402; host or cells: human liver (tissue isolate)
T4 sequence (P07711 114-333): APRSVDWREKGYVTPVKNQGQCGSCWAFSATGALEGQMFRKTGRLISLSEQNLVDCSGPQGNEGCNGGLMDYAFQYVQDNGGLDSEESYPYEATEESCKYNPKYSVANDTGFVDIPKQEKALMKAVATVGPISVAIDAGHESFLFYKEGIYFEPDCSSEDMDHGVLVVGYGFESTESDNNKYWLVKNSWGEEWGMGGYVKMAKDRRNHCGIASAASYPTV
Method: as §1, §2, §3
1 nM cathepsin L—isolated from human liver (Calbiochem #219402), 2 μM Z-Phe-Arg-AMC (Bachem #I-1160) as substrate in 50 mM MES, 2 mM EDTA, 0.05% Brij 35, 2.5 mM L-cysteine, pH 6.0, room temperature.

[5] = target: T5, recombinant human cathepsin S (Homo sapiens, UniProt P25774); experiment: Cathepsin S enzyme inhibition, kinetic fluorescence assay; format: biochemical; conditions: selectivity ratio vs calpain
T5 construct: purchased Calbiochem 219343; host or cells: E. coli
T5 sequence (P25774 115-331): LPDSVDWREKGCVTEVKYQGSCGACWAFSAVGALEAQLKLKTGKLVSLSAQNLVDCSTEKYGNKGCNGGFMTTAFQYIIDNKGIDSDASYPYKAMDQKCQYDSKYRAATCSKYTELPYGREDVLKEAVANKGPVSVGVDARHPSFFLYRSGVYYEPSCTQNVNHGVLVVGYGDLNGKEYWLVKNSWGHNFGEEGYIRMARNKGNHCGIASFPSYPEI
Method: as §1, §2, §3
0.5 nM recombinant human cathepsin S from E. coli (Calbiochem #219343), 20 μM Z-Val-Val-Arg-AMC (Bachem #I-1540) as substrate in 50 mM MES, 2 mM EDTA, 0.05% Brij 35, 2.5 mM L-cysteine, pH 6.0, room temperature.

[6] = Cytosolic clearance in human liver cytosol; format: in vitro ADME; conditions: 0.5 μM compound, 1 mg/ml human liver cytosol, 37° C., pH 7.5; read-out: human cytCL (cytosolic clearance)
Method: (§4) III Assay for Determining Cytosolic Clearance of Compounds of Formula I: […]
(§5) For comparison purposes data measured with human liver cytosol were contrasted with those obtained with cynomolgus monkey liver cytosol.
(§6) 0.5 μM of a compound to be tested was incubated with 1 mg/ml of human liver cytosol as well as monkey liver cytosol at 37° C. in 0.5 M of phosphate buffer at pH 7.5 while shaking (commercial sources: female cynomolgus liver cytosol from Tebu bio, human liver cytosol from BDgentest).
(§7) In each case aliquots of 65 μl were taken after 0, 5, 10 and 15 min and transferred into wells of a wellplate which were immediately filled with 130 μl of ethanol to stop the reaction. The samples were kept frozen until analysis on a LC/MS/MS system (Applied Biosystems SCIEX 4000).
(§8) Read out parameters were the loss of parent compounds, from which the half life periods (T1/2) were calculated from.
(§9) To assess the stability of the compounds tested the clearance ranges were adjusted to the hepatic plasma flow of the different species according to the following scheme:
(§10) stable=from 0 to about ⅓ of the hepatic plasma flow;
(§11) moderately stable=from about ⅓ to about ⅔ of the hepatic plasma flow;
(§12) instable=more than ⅔ of the hepatic plasma flow.
(§13) Based on this adjustment the following qualifiers were assigned to evaluate the cytosolic stabilities of the compounds tested: […]

[7] = Cytosolic clearance in cynomolgus monkey liver cytosol; format: in vitro ADME; conditions: female; 0.5 μM compound, 1 mg/ml cynomolgus monkey liver cytosol, 37° C., pH 7.5; read-out: cyno cytCL (cytosolic clearance)
Method: as §4, §5, §6, §7, §8, §9, §10, §11, §12, §13

| Ki [1] | cytosolic intrinsic clearance at 0.5 μM [6] | cytosolic intrinsic clearance at 0.5 μM [7] | Calpain activity (Ki(calpain)) [1] | SMILES | Sel cat. B (Ki(cathepsin B)/Ki(calpain) ratio) [2] | Sel cat. K (Ki(cathepsin K)/Ki(calpain) ratio) [3] | Sel cat. L (Ki(cathepsin L)/Ki(calpain) ratio) [4] | Sel cat. S (Ki(cathepsin S)/Ki(calpain) ratio) [5] |
| --- | --- | --- | --- | --- | --- | --- | --- | --- |
| 300 to 600 nM |  |  |  | CC(C)(C)ONC(=O)C(=O)C(Cc1ccccc1)NC(=O)c1cccnc1-n1ccc(-c2ccccc2)n1 (centres unmarked) [Example 16, N-(4-{[(2-Methyl-2-propanyl)oxy]amino}-3,4-dioxo-1-phenyl-2-butanyl)-2-(3-phenyl-1H-pyrazol-1-yl)nicotinamide] | +++ (+++ means a Ki(cathepsin B)/Ki(calpain) ratio of >10) | ∘ | + (+ means 5≦Ki(cathepsin L)/Ki(calpain)≦10) | ++ (++ means 10<Ki(cathepsin S)/Ki(calpain)≦50) |
| < 200 nM |  |  |  | CCONC(=O)C(=O)C(Cc1ccc(OC)cc1)NC(=O)c1cccnc1-n1ccc(-c2ccccc2)n1 (centres unmarked) [Example 24, N-[4-(Ethoxyamino)-1-(4-methoxyphenyl)-3,4-dioxo-2-butanyl]-2-(3-phenyl-1H-pyrazol-1-yl)nicotinamid] | ++ (++ means 4<Ki(cathepsin B)/Ki(calpain)≦10) | + (+ means 2≦Ki(cathepsin K)/Ki(calpain)≦4) | ++ (++ means 10<Ki(cathepsin L)/Ki(calpain)≦50) | ++ (++ means 10<Ki(cathepsin S)/Ki(calpain)≦50) |
|  |  |  | ∘ | CCONC(=O)C(=O)C(Cc1ccccc1)NC(=O)[C@H]1CCC(=O)N1Cc1ccccc1 (stereo partly drawn) [Example 29, (2R)-1-benzyl-N-(4-(ethoxyamino)-3,4-dioxo-1-phenylbutan-2-yl)-5-oxopyrrolidine-2-carboxamide] | +++ (+++ means a Ki(cathepsin B)/Ki(calpain) ratio of >10) | ++ (++ means 4<Ki(cathepsin K)/Ki(calpain)≦10) | ++ (++ means 10<Ki(cathepsin L)/Ki(calpain)≦50) | ++ (++ means 10<Ki(cathepsin S)/Ki(calpain)≦50) |
| < 200 nM |  |  |  | O=C(NOCC1CC1)C(=O)C(Cc1ccccc1)NC(=O)[C@H]1CCC(=O)N1Cc1ccccc1 (stereo partly drawn) [Example 31, (2R)-1-benzyl-N-(4-(cyclopropylmethoxyamino)-3,4-dioxo-1-phenylbutan-2-yl)-5-oxopyrrolidine-2-carboxamide] | + (+ means 2≦Ki(cathepsin B)/Ki(calpain)≦4) | ∘ | ∘ | ++ (++ means 10<Ki(cathepsin S)/Ki(calpain)≦50) |

The next lines start with the molecule.

| SMILES | Ki [1] | cytosolic intrinsic clearance at 0.5 μM [6] | cytosolic intrinsic clearance at 0.5 μM [7] | Calpain activity (Ki(calpain)) [1] | Sel cat. B (Ki(cathepsin B)/Ki(calpain) ratio) [2] | Sel cat. K (Ki(cathepsin K)/Ki(calpain) ratio) [3] | Sel cat. L (Ki(cathepsin L)/Ki(calpain) ratio) [4] | Sel cat. S (Ki(cathepsin S)/Ki(calpain) ratio) [5] |
| --- | --- | --- | --- | --- | --- | --- | --- | --- |
| CCONC(=O)C(=O)C(Cc1ccccc1)NC(=O)c1cccnc1-n1ccc(-c2ccccc2)n1 (centres unmarked) [Example 7, N-(4-(Ethoxyamino)-3,4-dioxo-1-phenylbutan-2-yl)-2-(3-phenyl-1H-pyrazol-1-yl)nicotinamide] | < 200 nM | < 14 µL/min/mg | < 18 µL/min/mg |  | ++ (++ means 4<Ki(cathepsin B)/Ki(calpain)≦10) | + (+ means 2≦Ki(cathepsin K)/Ki(calpain)≦4) | ++ (++ means 10<Ki(cathepsin L)/Ki(calpain)≦50) | +++ (+++ means a Ki(cathepsin S)/Ki(calpain) ratio of >50) |
| CC(C)(C)CONC(=O)C(=O)C(Cc1ccccc1)NC(=O)c1cccnc1-n1ccc(-c2ccccc2)n1 (centres unmarked) [Example 21, N-{4-[(2,2-Dimethylpropoxy)amino]-3,4-dioxo-1-phenyl-2-butanyl}-2-(3-phenyl-1H-pyrazol-1-yl)nicotinamide] | 200 to 300 nM |  |  |  | + (+ means 2≦Ki(cathepsin B)/Ki(calpain)≦4) | ∘ | ∘ | + (+ means 5≦Ki(cathepsin S)/Ki(calpain)≦10) |
